Laboratory results from patent US10045983B2, “Heteroaryl pyridone and aza-pyrodine compounds” (Genentech, Inc., priority 2011, dated 2018).

test: CD69 Whole Blood Assay (CD69 Hu Blood FACS); assay type: cell-based, human; conditions: Lymphocyte; human whole blood, anti-IgM activated B lymphocytes, FACS; IC70; Table 2 (unit inferred); read-out: CD69 Hu Blood FACS (IC70)
Procedure, shortened: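 Compounds tested for blocking B-cell CD69 induction by flow cytometry in human whole blood, with activation via anti-human IgM goat F(ab′)2 crosslinking of surface IgM.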

Structure (SMILES)	IC70 [µM]
COCCN1CCn2nc(Nc3cc(-c4cncc(N5CCn6c(cc7c6CC(C)(C)C7)C5=O)c4CO)cn(C)c3=O)cc2C1 [Example 328, 3-[4-(hydroxymethyl)-5-[5-[[5-(2-methoxyethyl)-6,7-dihydro-4H-pyrazolo[1,5-a]pyrazin-2-yl]amino]-1-methyl-6-oxo-3-pyridyl]-3-pyridyl]-7,7-dimethyl-1,2,6,8-tetrahydrocyclopenta[3,4]pyrrolo[3,5-b]pyrazin-4-one]	0.0124
COCCN1CCn2nc(Nc3cc(-c4nccc(N5CCn6c(cc7c6CC(C)(C)C7)C5=O)c4CO)cn(C)c3=O)cc2C1 [Example 329, 3-[3-(hydroxymethyl)-2-[5-[[5-(2-methoxyethyl)-6,7-dihydro-4H-pyrazolo[1,5-a]pyrazin-2-yl]amino]-1-methyl-6-oxo-3-pyridyl]-4-pyridyl]-7,7-dimethyl-1,2,6,8-tetrahydrocyclopenta[3,4]pyrrolo[3,5-b]pyrazin-4-one]	0.11
Cn1nc(-c2ccnc(N3CCc4c(sc5c4CC(C)(C)C5)C3=O)c2CO)cc(Nc2cc3n(n2)CC(C)(C)OC3)c1=O [Example 330, 3-[4-[5-[(6,6-dimethyl-4,7-dihydropyrazolo[5,1-c][1,4]oxazin-2-yl)amino]-1-methyl-6-oxo-pyridazin-3-yl]-3-(hydroxymethyl)-2-pyridyl]-7,7-dimethyl-1,2,6,8-tetrahydrocyclopenta[3,4]thieno[1,3-c]pyridin-4-one]	0.235
CCc1nnc(Nc2cc(-c3ccnc(N4CCn5c(cc6c5CC(C)(C)C6)C4=O)c3CO)cn(C)c2=O)s1 [Example 332, 3-[4-[5-[(5-ethyl-1,3,4-thiadiazol-2-yl)amino]-1-methyl-6-oxo-3-pyridyl]-3-(hydroxymethyl)-2-pyridyl]-7,7-dimethyl-1,2,6,8-tetrahydrocyclopenta[3,4]pyrrolo[3,5-b]pyrazin-4-one]	0.0919
Cn1cc(Nc2cc(-c3ccnc(N4CCc5c(sc6c5CC(C)(C)C6)C4=O)c3CO)cn(C)c2=O)nn1 [Example 333, 3-[3-(hydroxymethyl)-4-[1-methyl-5-[(1-methyltriazol-4-yl)amino]-6-oxo-3-pyridyl]-2-pyridyl]-7,7-dimethyl-1,2,6,8-tetrahydrocyclopenta[3,4]thieno[1,3-c]pyridin-4-one]	0.209
Cn1cc(-c2ccnc(-n3ncc4c5c(sc4c3=O)CC(C)(C)C5)c2CO)cc(Nc2cc3n(n2)CC(C)(C)OC3)c1=O [Example 335, 3-[4-[5-[(6,6-dimethyl-4,7-dihydropyrazolo[5,1-c][1,4]oxazin-2-yl)amino]-1-methyl-6-oxo-3-pyridyl]-3-(hydroxymethyl)-2-pyridyl]-7,7-dimethyl-6,8-dihydrocyclopenta[3,4]thieno[1,3-d]pyridazin-4-one]	0.0528
COCc1cc(Nc2cc(-c3ccnc(N4CCc5c(cc6n5CCCC6)C4=O)c3CO)cn(C)c2=O)nn1C [Example 336, 2-[3-(hydroxymethyl)-4-[5-[[5-(methoxymethyl)-1-methyl-pyrazol-3-yl]amino]-1-methyl-6-oxo-3-pyridyl]-2-pyridyl]-3,4,6,7,8,9-hexahydropyrido[3,4-b]indolizin-1-one]	0.33
Cc1nc(Nc2cc(-c3ccnc(N4CCn5c(cc6c5CC(C)(C)C6)C4=O)c3CO)cn(C)c2=O)cn1C [Example 337, 3-[4-[5-[(1,2-dimethylimidazol-4-yl)amino]-1-methyl-6-oxo-3-pyridyl]-3-(hydroxymethyl)-2-pyridyl]-7,7-dimethyl-1,2,6,8-tetrahydrocyclopenta[3,4]pyrrolo[3,5-b]pyrazin-4-one]	0.613
Cn1cc(-c2ccnc(N3CCn4c(cc5c4CC(C)(C)C5)C3=O)c2CO)cc(Nc2cc3n(n2)CCN(CCC#N)C3)c1=O [Example 338, 3-[2-[[5-[2-(7,7-dimethyl-4-oxo-1,2,6,8-tetrahydrocyclopenta[3,4]pyrrolo[3,5-b]pyrazin-3-yl)-3-(hydroxymethyl)-4-pyridyl]-1-methyl-2-oxo-3-pyridyl]amino]-6,7-dihydro-4H-pyrazolo[155-a]pyrazin-5-yl]propanenitrile]	0.0178
